Experimental data: patent publication US6737383B1, “Herbicidal oxadiazolidines” (priority 1999, dated 2004)

How the values were obtained:
[1] = tested on: purple nutsedge; experiment: Test B pre/postemergence purple nutsedge; type: in vivo, Cyperus rotundus
Procedure, shortened: (§1)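 Test chemicals in a non-phytotoxic solvent mixture with surfactant were sprayed preemergence onto planted seeds and postemergence onto plants 2 to 18 cm tall (1- to 4-leaf stage). After twelve to sixteen days in a greenhouse, injury was visually rated against untreated controls from 0 (no effect) to 10 (complete control).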

[2] = tested on: rice; experiment: Test B flood test rice; type: in vivo, Oryza sativa
Procedure, shortened: (§2)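 Each value is a visual injury score relative to controls, with 10 meaning complete control and 0 no effect. Evaluation took place twelve to sixteen days after the 2-leaf-stage plants were treated and kept in the greenhouse.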

[3] = tested on: corn; experiment: Test B pre/postemergence corn; type: in vivo, Zea mays
Procedure, shortened: as §1

[4] = tested on: surinam grass; experiment: Test B pre/postemergence surinam grass; type: in vivo, Brachiaria decumbens
Procedure, shortened: as §1

[5] = tested on: wheat; experiment: Test B pre/postemergence wheat; type: in vivo, Triticum aestivum; details: for Plant response rating, Wheat: Rate 250 g/ha
Procedure, shortened: as §1

[6] = tested on: bamyardgrass; experiment: Test B flood test barnyardgrass; type: in vivo, Echinochloa crus-galli
Procedure, shortened: as §2

[7] = tested on: wild oat; experiment: Test B pre/postemergence wild oat; type: in vivo, Avena fatua; details: for Plant response rating, Wild oats: Rate 250 g/ha
Procedure, shortened: as §1

[8] = tested on: rape; experiment: Test B pre/postemergence rape; type: in vivo, Brassica napus
Procedure, shortened: as §1

[9] = tested on: pigweed; experiment: Test B pre/postemergence pigweed; type: in vivo, Amaranthus retroflexus
Procedure, shortened: as §1

[10] = tested on: smallflower flatsedge; experiment: Test B flood test smallflower flatsedge; type: in vivo, Cyperus difformis
Procedure, shortened: as §2

[11] = tested on: giant foxtail; experiment: Test B pre/postemergence giant foxtail; type: in vivo, Setaria faberii
Procedure, shortened: as §1

[12] = tested on: sugar beet; experiment: Test B pre/postemergence sugar beet; type: in vivo, Beta vulgaris; details: for Plant response rating, Sugarbeets: Rate 250 g/ha
Procedure, shortened: as §1

[13] = tested on: morningglory; experiment: Test B pre/postemergence morningglory; type: in vivo, Ipomoea hederacea
Procedure, shortened: as §1

[14] = tested on: bedstraw; experiment: Test B pre/postemergence bedstraw; type: in vivo, Galium aparine
Procedure, shortened: as §1

[15] = tested on: crabgrass; experiment: Test B pre/postemergence crabgrass; type: in vivo, Digitaria sanguinalis
Procedure, shortened: as §1

[16] = tested on: blackgrass; experiment: Test B pre/postemergence blackgrass; type: in vivo, Alopecurus myosuroides
Procedure, shortened: as §1

[17] = Postemergence, Rate 125 g/ha, scale of 0 to 10 where 0 is no effect and 10 is complete control
[18] = Postemergence, Rate 250 g/ha, scale 0 to 10, 0 no effect, 10 complete control
[19] = Preemergence, Rate 62 g/ha, scale 0 to 10 (0 no effect, 10 complete control)
[20] = Preemergence, Rate 125 g/ha, scale 0 to 10 (0 no effect, 10 complete control)
[21] = Preemergence, Rate 250 g/ha, scale of 0 to 10 where 0 is no effect and 10 is complete control
[22] = Preemergence, Rate 500 g/ha, scale 0 to 10 (0 no effect, 10 complete control)
[23] = Rate 62 g/ha, Postemergence, scale of 0 to 10 where 0 is no effect and 10 is complete control
[24] = Rate 500 g/ha, Postemergence, scale 0 to 10, 0 no effect, 10 complete control
[25] = Postemergence (flood test species), Rate 125 g/ha, scale of 0 to 10 where 0 is no effect and 10 is complete control
[26] = Rate 62 g/ha, Postemergence section, flood test species, scale of 0 to 10 where 0 is no effect and 10 is complete control
[27] = Rate 250 g/ha, Postemergence (flood test), scale 0 to 10, 0 is no effect, 10 is complete control
[28] = Rate 250 g/ha, headed Pre-emergence (flood test species), scale 0 to 10 (0 no effect, 10 complete control)
[29] = Rate 500 g/ha, headed Pre-emergence (flood test species), scale 0 to 10 (0 no effect, 10 complete control)
[30] = Rate 500 g/ha, listed under Postemergence (flood test species), scale 0 to 10, 0 no effect, 10 complete control
[31] = Rate 1000 g/ha, Pre-emergence (as headed), scale 0 to 10
[32] = Rate 2000 g/ha, Pre-emergence (as headed), scale 0 to 10
[33] = Postemergence, Rate 62 g/ha, scale 0 to 10, 0 is no effect, 10 is complete control
[34] = Preemergence, Rate 125 g/ha, 0 is no effect, 10 is complete control
[35] = Preemergence, scale of 0 to 10 where 0 is no effect and 10 is complete control
[36] = Postemergence, scale 0 to 10, 0 is no effect, 10 is complete control

For Cc1nn(C)c(Cl)c1-n1c(=O)on(C(=O)N(c2ccccc2)C(C)C)c1=O [Compound 121], the “Nutsedge plant response rating” value [1, 17] was 0, the “Nutsedge plant response rating” value [1, 18] was 0 and the “Nutsedge plant response rating” value [1, 19] was 0. For the same compound, the “Plant response rating, Nutsedge” value [1, 20] was 0, the “Plant response rating, Nutsedge” value [1, 21] was 0 and the “Nutsedge plant response rating” value [1, 22] was 0. The “Nutsedge plant response rating” value [1, 23] was 0, the “Nutsedge plant response rating” value [1, 24] was 0 and the “Rice plant response rating” value [2, 25] was 0. The “Rice plant response rating” value [2, 26] was 0, the “Plant response rating, Rice” value [2, 27] was 0 and the “Rice plant response rating” value [2, 28] was 0. For the same compound, the “Plant response rating, Rice” value [2, 29] was 0, the “Rice plant response rating” value [2, 30] was 0 and the “Rice plant response rating” value [2, 31] was 3. For the same compound, the “Rice plant response rating” value [2, 32] was 5, the “Corn plant response rating” value [3, 17] was 0 and the “Corn plant response rating” value [3, 18] was 0. The “Corn plant response rating” value [3, 19] was 0, the “Plant response rating, Corn” value [3, 20] was 0 and the “Plant response rating, Corn” value [3, 21] was 0. For the same compound, the “Corn plant response rating” value [3, 22] was 0, the “Corn plant response rating” value [3, 23] was 0 and the “Corn plant response rating” value [3, 24] was 0. For the same compound, the “B. signalgrass plant response rating” value [4, 33] was 0, the “B. signalgrass plant response rating” value [4, 17] was 0 and the “B. signalgrass plant response rating” value [4, 18] was 3. The “B. signalgrass plant response rating” value [4, 19] was 0, the “Plant response rating, B. signalgrass” value [4, 20] was 4 and the “Plant response rating, B. signalgrass” value [4, 21] was 8. The “B. signalgrass plant response rating” value [4, 22] was 9, the “B. signalgrass plant response rating” value ([4]; Rate 500 g/ha, Postemergence, scale of 0 to 10 where 0 is no effect and 10 is complete control) was 3 and the “Wheat plant response rating” value [5, 17] was 0. The “Wheat plant response rating” value [5, 19] was 0, the “Wheat plant response rating (0 to 10 scale)” value [5, 34] was 0 and the “Plant response rating, Wheat” value [5, 35] was 0. For the same compound, the “Wheat plant response rating” value [5, 22] was 3, the “Wheat plant response rating” value [5, 23] was 0 and the “Plant response rating, Wheat” value [5, 36] was 0. The “Wheat plant response rating” value [5, 24] was 0, the “Barnyardgrass plant response rating” value [6, 25] was 0 and the “Barnyardgrass plant response rating” value [6, 33] was 0. The “Barnyardgrass plant response rating” value [6, 28] was 0, the “Plant response rating, Barnyardgrass” value [6, 29] was 8 and the “Barnyardgrass plant response rating” value [6, 30] was 6. The “Barnyardgrass plant response rating” value [6, 31] was 9, the “Barnyardgrass plant response rating” value ([6]; Rate 2000 g/ha, Pre-emergence (as headed), scale 0 to 10, 0 no effect, 10 complete control) was 9 and the “Barnyardgrass plant response rating” value ([6]; flood test, listed under Postemergence, Rate 250 g/ha, scale 0 to 10, 0 no effect, 10 complete control) was 0. The “Wild oats plant response rating” value [7, 17] was 0, the “Wild oats plant response rating” value [7, 19] was 0 and the “Wild oats plant response rating (0 to 10 scale)” value [7, 34] was 0. The “Plant response rating, Wild oats” value [7, 35] was 5, the “Wild oats plant response rating” value [7, 22] was 6 and the “Wild oats plant response rating” value [7, 23] was 0. For the same compound, the “Plant response rating, Wild oats” value [7, 36] was 0, the “Wild oats plant response rating” value [7, 24] was 0 and the “Rape plant response rating” value [8, 17] was 0. For the same compound, the “Rape plant response rating” value [8, 18] was 2, the “Rape plant response rating” value [8, 19] was 0 and the “Plant response rating, Rape” value [8, 20] was 0. The “Plant response rating, Rape” value [8, 21] was 0, the “Rape plant response rating” value [8, 22] was 0 and the “Rape plant response rating” value [8, 23] was 0. The “Rape plant response rating” value [8, 24] was 3, the “Redroot pigweed plant response rating” value [9, 17] was 2 and the “Redroot pigweed plant response rating” value [9, 19] was 4. The “Plant response rating, Redroot pigweed” value [9, 20] was 7, the “Plant response rating, Redroot pigweed” value [9, 21] was 8 and the “Redroot pigweed plant response rating” value [9, 22] was 8. The “Redroot pigweed plant response rating” value [9, 23] was 2, the “Plant response rating, Redroot pigweed” value ([9]; Rate 250 g/ha, Postemergence, scale 0 to 10, 0 is no effect, 10 is complete control) was 3 and the “Redroot pigweed plant response rating” value [9, 24] was 5. The “S. Flatsedge plant response rating” value [10, 25] was 5, the “S. Flatsedge plant response rating” value ([10]; Pre-emergence, Rate 1000 g/ha, scale 0 to 10 (0 no effect, 10 complete control)) was 9 and the “S. Flatsedge plant response rating” value [10, 26] was 3. The “Plant response rating, S. Flatsedge” value [10, 27] was 5, the “S. Flatsedge plant response rating” value [10, 28] was 0 and the “Plant response rating, S. Flatsedge” value [10, 29] was 3. For the same compound, the “S. Flatsedge plant response rating” value [10, 30] was 6, the “S. Flatsedge plant response rating” value [10, 32] was 9 and the “Giant foxtail plant response rating” value [11, 17] was 1. For the same compound, the “Giant foxtail plant response rating” value [11, 18] was 7, the “Giant foxtail plant response rating” value [11, 19] was 8 and the “Plant response rating, Giant foxtail” value [11, 20] was 8. The “Plant response rating, Giant foxtail” value [11, 21] was 8, the “Giant foxtail plant response rating” value [11, 22] was 10 and the “Giant foxtail plant response rating” value [11, 23] was 1. For the same compound, the “Giant foxtail plant response rating” value [11, 24] was 8, the “Sugarbeets plant response rating” value [12, 17] was 0 and the “Sugarbeets plant response rating” value [12, 19] was 0. The “Sugarbeets plant response rating (0 to 10 scale)” value [12, 34] was 3, the “Plant response rating, Sugarbeets” value [12, 35] was 7 and the “Sugarbeets plant response rating” value [12, 22] was 7. The “Sugarbeets plant response rating” value [12, 23] was 0, the “Plant response rating, Sugarbeets” value [12, 36] was 4 and the “Sugarbeets plant response rating” value [12, 24] was 4. The “Morningglory plant response rating” value [13, 17] was 6, the “Morningglory plant response rating” value [13, 18] was 6 and the “Morningglory plant response rating” value [13, 19] was 0. For the same compound, the “Plant response rating, Morningglory” value [13, 20] was 0, the “Plant response rating, Morningglory” value [13, 21] was 0 and the “Morningglory plant response rating” value [13, 22] was 0. For the same compound, the “Morningglory plant response rating” value [13, 23] was 5, the “Morningglory plant response rating” value [13, 24] was 9 and the “Bedstraw plant response rating” value [14, 19] was 0. The “Plant response rating, Bedstraw” value [14, 20] was 0, the “Plant response rating, Bedstraw” value [14, 21] was 2 and the “Bedstraw plant response rating” value [14, 22] was 5. The “Bedstraw plant response rating” value [14, 24] was 6, the “Crabgrass plant response rating” value [15, 17] was 6 and the “Crabgrass plant response rating” value [15, 18] was 9. For the same compound, the “Crabgrass plant response rating” value [15, 19] was 2, the “Plant response rating, Crabgrass” value [15, 20] was 7 and the “Plant response rating, Crabgrass” value [15, 21] was 8. For the same compound, the “Crabgrass plant response rating” value [15, 22] was 9, the “Crabgrass plant response rating” value [15, 23] was 4 and the “Crabgrass plant response rating” value [15, 24] was 9. For the same compound, the “Blackgrass plant response rating” value [16, 17] was 0, the “Blackgrass plant response rating” value [16, 18] was 2 and the “Blackgrass plant response rating” value [16, 19] was 0. The “Plant response rating, Blackgrass” value [16, 20] was 4, the “Plant response rating, Blackgrass” value [16, 21] was 7 and the “Blackgrass plant response rating” value [16, 22] was 9. For the same compound, the “Blackgrass plant response rating” value [16, 23] was 0 and the “Blackgrass plant response rating” value [16, 24] was 6.
